Consider one substance from US20200325178A1, “PEPTIDE NUCLEIC ACID MOLECULES FOR TREATMENT OF GRAM POSITIVE BACTERIAL INFECTION” (priority 2017, published 2020).

What all share (type): cell-based, Staphylococcus aureus
The subject of one data set is S. aureus MRSA strains. Put plainly: Bioscreen-C dose response growth curve of MRSA over 24 hours. To be noted: HCl salts, doses from 100 μg downwards, 10 mM sodium bicarbonate buffer pH-7.4, OD 420-580 nm. How it is done:
Bioscreen-C instrument was used to detect the MIC and MBC of PNA-CPP derivatives against S. aureus MRSA strains. Different concentration of PNA-CPP derivatives were prepared in 10 mM of sodium bicarbonate buffer pH-7.4 and added to ˜5.0 Log 10 CFUs in a Honey comb Bioscreen-C plate.
Compound I-V were assayed against MRSA. FIG. 6-10 show a dose response growth curve of MRSA in presence of increasing concentrations of Compound I-HCl (FIG. 6), Compound II-HCl (FIG. 7), Compound III-HCl (FIG. 8), Compound IV-HCl (FIG. 9), and Compound V-HCl (FIG. 10), determined in a Bioscreen-C spectrophotometer.

A further data set deals with S. aureus MSSA strains. Put plainly: Bioscreen-C dose response growth curve of MSSA over 24 hours. To be noted: HCl salts, doses from 100 μg downwards, 10 mM sodium bicarbonate buffer pH-7.4, OD 420-580 nm. How it is done: (§1) Bioscreen-C instrument was used to detect the MIC and MBC of PNA-CPP derivatives against S. aureus MSSA strains. Different concentrations of PNA-CPP derivatives were prepared in 10 mM of sodium bicarbonate buffer pH-7.4 and added to ˜5.0 Log 10 CFUs in a Honey comb Bioscreen-C plate.
Compound I-V were assayed against MSSA. FIG. 12-16 show a dose response growth curve of MSSA in presence of increasing concentrations of Compound I-HCl (FIG. 12), Compound II-HCl (FIG. 13), Compound III-HCl (FIG. 14), Compound IV-HCl (FIG. 15), and Compound V-HCl (FIG. 16), determined in a Bioscreen-C spectrophotometer.

Data set [1] has as its system MSSA clinical isolates and ATCC strains. The data set is described as follows: MIC and MBC against MSSA clinical isolates and ATCC strains. Set-up: MIC: unit not given here. The method, then:
as §1
After the growth curve assays, the number of colony forming units (CFU) were counted to determine the MIC and MBC of each PNA-CPP derivative against MSSA.
Minimum inhibitory concentration (MIC) analyses were performed as described in Clinical and Laboratory Standards Institute, Methods for Dilution Antimicrobial Susceptibility Tests for Bacteria that Grow Aerobically, 7th ed.; Approved Standard M7-A7; CLSI: Wayne, Pa., USA, 2006; volume 26, No. 2. Vancomycin and Oxacillin were used as controls. MIC was determined as the lowest concentration of agent that inhibits bacterial growth detected at A420-580 nm.

Where [2] appears, read: MSSA table, isolate MRSA#16 [sic].
Where [3] appears, read: MSSA table, isolate MRSA#25 [sic].
Setting [4] is: MSSA table, isolate MRSA#27 [sic].
The mark [5] stands for this setting: MSSA table, isolate MRSA#34 [sic].
[6] abbreviates: MSSA table, isolate MRSA#38 [sic].
Where [7] appears, read: MSSA table, isolate MRSA#57 [sic].
Setting [8] is: MSSA table, isolate MRSA#60 [sic].
Setting [9] is: MSSA table, isolate printed MRSA#49.
The mark [10] stands for this setting: MSSA table, isolate printed MRSA#61.

As for “Compound I: PNA-CPP conjugate: PNA cgt cat acg cgg tcc (SEQ ID NO: 51), AEEA linker, CPP BXRXRRXRRXRRXR; FIG. 1 (CGTCATACGCGGTCC; all peptide nucleic acid (PNA); cell-penetrating peptide attached via AEEA linker, further chemistry not fully specified)”, in the data set on S. aureus MRSA strains, the “lowest dose at which no MRSA growth was observed (growth curve)” value came to 3.13 µg. The “lowest dose at which no MSSA growth was observed (growth curve)” value with S. aureus MSSA strains stood at 3.13 µg. Also, the MBC is 1.56/1.56 ∞g in data set [1] (setting [2]); 3.25 ∞g in data set [1] (setting [3]); 1.56 ∞g in data set [1] (setting [4]); 3.25/3.25 ∞g in data set [1] (setting [5]); 1.56/1.56 ∞g in data set [1] (setting [6]); 3.25 ∞g in data set [1] (MSSA table, isolate MRSA#55). Moreover, the MBC in data set [1] (setting [7]) is on record as 3.25 ∞g; in data set [1] (setting [8]), 1.56 ∞g; in data set [1] (setting [9]), 3.25 ∞g; in data set [1] (setting [10]) it was 3.25/3.25 ∞g; in data set [1] (strain BAA 1721) it was 3.25 ∞g. Also, the MIC is reported as 1.56/1.56 ∞g in data set [1] (setting [2]); 1.56 ∞g in data set [1] (setting [3]); 0.78 ∞g in data set [1] (setting [4]); 3.25/3.25 ∞g in data set [1] (setting [5]); 1.56/1.56 ∞g in data set [1] (setting [6]); 1.56 ∞g in data set [1] (MSSA table, isolate MRSA#55). The MIC in data set [1] (setting [7]) is listed as 1.56 ∞g; in data set [1] (setting [8]), 0.78 ∞g; in data set [1] (setting [9]), 1.56 ∞g; in data set [1] (setting [10]), 3.25/3.25 ∞g; in data set [1] (strain BAA 1721), 1.56 ∞g.
